A word on the EC50: it is the concentration that produces a half-maximal response.

Consider 21 compounds from patent US8501772B2, “3,8-diaminotetrahydroquinoline derivative” (Zeria Pharmaceutical Co., Ltd., priority 2008, dated 2013).

In this assay the target is T1, human GHS-R1a (Homo sapiens, UniProt Q92847).
T1 construct: expressed in transfected cells
The experiment in a line: Agonistic activity by use of a cell line stably expressing human GHS-R1a (intracellular calcium increase). The format is cell-based. The note with it: hGHS-R1a/CHO cells, percent increase in intracellular calcium vs 100 nM ghrelin; read-out: GHS-R agonistic activity (EC50: nM). Here is the method:
CHO-K1 cells were transfected with human GHS-R1a genes, to thereby provide cells stably expressing GHS-R1a (hGHS-R1a/CHO), and the agonistic activity of each compound was evaluated by use of the cells based on percent increase in intracellular calcium as an index.
The hGHS-R1a/CHO cells were inoculated at 6×10^4 cells/well in a 96-well plate (Clear bottom/Black plate, product of Corning), and cultured in Ham's F12 medium containing 10% fetal bovine serum at 37° C. and 5% CO2 for 18 hours. After culture, the medium was removed, and then the hGHS-R1a/CHO cells were cultured for two hours in a Hanks' balanced salt solution/HEPES (HBSS/HEPES, 100 μL) containing a calcium fluorescent indicator (4 μM Fluo-3AM, product of Dojin), 2 mM Probenecid, 0.1% Pluronic F-127, and 0.1% BSA, whereby the indicator was incorporated into the cells. After washing the cells, HBSS/HEPES (175 μL/well) containing 2 mM Probenecid and 0.1% BSA was added to the plate, and the fluorescence before and after addition of each test compound was determined by means of FLEXstation (Ex: 485 nm, Em: 525 nm, product of Molecular Devices). Each test compound was multi-fold diluted with dimethyl sulfoxide and then diluted with HBSS/HEPES containing 2 mM Probenecid, 0.04% Pluronic F-127, and 0.1% BSA, to thereby attain a final concentration of interest. The thus-diluted solution (25 μL/well) was added to the wells.
Agonistic activity(%)=(A−B)/(C−D)×100
A: Fluorescence intensity after addition of test compound
B: Fluorescence intensity before addition of test compound
C: Fluorescence intensity after addition of 100 nM ghrelin
D: Fluorescence intensity before addition of ghrelin
For orientation: Calcium flux is commonly read through the fluorescence of an indicator in the cells.

Structures can show the parent of a compound that is named as a salt. A value given as a limit tells only on which side of the number the result lay.

T1 sequence (Q92847 whole entry): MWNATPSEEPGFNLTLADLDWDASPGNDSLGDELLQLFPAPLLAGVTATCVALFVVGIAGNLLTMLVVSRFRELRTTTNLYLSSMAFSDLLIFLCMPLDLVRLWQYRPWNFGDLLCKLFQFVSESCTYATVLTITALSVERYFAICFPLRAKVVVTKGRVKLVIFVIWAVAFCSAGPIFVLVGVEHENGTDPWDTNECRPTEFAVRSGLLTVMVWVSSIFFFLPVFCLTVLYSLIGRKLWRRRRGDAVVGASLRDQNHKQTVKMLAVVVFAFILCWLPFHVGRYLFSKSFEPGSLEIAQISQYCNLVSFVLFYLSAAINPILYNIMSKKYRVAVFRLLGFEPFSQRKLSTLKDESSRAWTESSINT

For `CC(C)C[C@@H](NC(=O)C(C)(C)N)C(=O)NC1Cc2ccccc2N(Cc2ccccc2)C1=O` (stereo partly drawn) [Comp. Ex. 1, (2R)-2-(2-Amino-2-methylpropanamido)-N-(1-benzyl-2-oxo-1,2,3,4-tetrahydroquinolin-3-yl)-4-methylpentanamide hydrochloride, reference compound], the EC50 came to 149 nM.

`CC(C)C[C@@H](NC(=O)[C@H](C)N)C(=O)NC1Cc2cccc(N3CCCC3=O)c2N(Cc2ccsc2)C1=O` (stereo partly drawn) [Example 25h, (2R)-2-((S)-2-aminopropanamido)-4-methyl-N-[2-oxo-8-(2-oxopyrrolidin-1-yl)-1-(thiophen-3-ylmethyl)-1,2,3,4-tetrahydroquinolin-3-yl]pentanamide]: the EC50 was found to be 6.13 nM.

For `CC[C@](C)(N)C(=O)N[C@H](CC(C)C)C(=O)NC1Cc2cccc(N3CCCC3=O)c2N(Cc2ccsc2)C1=O` (stereo partly drawn) [Example 25j, (2R)-2-((S)-2-amino-2-methylbutanamido)-4-methyl-N-[2-oxo-8-(2-oxopyrrolidin-1-yl)-1-(thiophen-3-ylmethyl)-1,2,3,4-tetrahydroquinolin-3-yl]pentanamide], the EC50 was 4.13 nM.

Take `CC(C)(N)C(=O)N[C@H](Cc1c[nH]c2ccccc12)C(=O)NC1Cc2cccc(N3CCCC3=O)c2N(Cc2ccsc2)C1=O` (stereo partly drawn) [Example 25l, N-[(2R)-3-(1H-indol-3-yl)-1-oxo-1-[2-oxo-8-(2-oxopyrrolidin-1-yl)-1-(thiophen-3-ylmethyl)-1,2,3,4-tetrahydroquinolin-3-ylamino]propan-2-yl]-2-amino-2-methylpropanamide]: the EC50 was less than 0.1 nM.

As to `Cn1cc(C[C@@H](NC(=O)C(C)(C)N)C(=O)NC2Cc3cccc(N4CCCC4=O)c3N(Cc3ccsc3)C2=O)c2ccccc21` (stereo partly drawn) [Example 34b, 2-amino-2-methyl-N-[(2R)-3-(1-methyl-1H-indol-3-yl)-1-oxo-1-[2-oxo-8-(2-oxopyrrolidin-1-yl)-1-(thiophen-3-ylmethyl)-1,2,3,4-tetrahydroquinolin-3-ylamino]propan-2-yl]propanamide hydrochloride], the EC50 came to 0.052 nM.

Turning to `CCn1cc(C[C@@H](NC(=O)C(C)(C)N)C(=O)NC2Cc3cccc(N4CCCC4=O)c3N(Cc3ccsc3)C2=O)c2ccccc21` (stereo partly drawn) [Example 34c, 2-amino-N-[(2R)-3-(1-ethyl-1H-indol-3-yl)-1-oxo-1-[2-oxo-8-(2-oxopyrrolidin-1-yl)-1-(thiophen-3-ylmethyl)-1,2,3,4-tetrahydroquinolin-3-ylamino]propan-2-yl]-2-methylpropanamide hydrochloride], the EC50 amounted to 0.02 nM.

On to `CC(C)(N)C(=O)N[C@H](Cc1cn(CCF)c2ccccc12)C(=O)NC1Cc2cccc(N3CCCC3=O)c2N(Cc2ccsc2)C1=O` (stereo partly drawn) [Example 34d, 2-amino-N-[(2R)-3-[1-(2-fluoroethyl)-1H-indol-3-yl]-1-oxo-1-[2-oxo-8-(2-oxopyrrolidin-1-yl)-1-(thiophen-3-ylmethyl)-1,2,3,4-tetrahydroquinolin-3-ylamino]propan-2-yl]-2-methylpropanamide hydrochloride], for which the EC50 turned out to be 0.22 nM.

In the case of `CCCn1cc(C[C@@H](NC(=O)C(C)(C)N)C(=O)NC2Cc3cccc(N4CCCC4=O)c3N(Cc3ccsc3)C2=O)c2ccccc21` (stereo partly drawn) [Example 34e, 2-amino-2-methyl-N-[(2R)-1-oxo-1-[2-oxo-8-(2-oxopyrrolidin-1-yl)-1-(thiophen-3-ylmethyl)-1,2,3,4-tetrahydroquinolin-3-ylamino]-3-(1-propyl-1H-indol-3-yl)propan-2-yl]propanamide hydrochloride], the concentration for a half-maximal effect (EC50) is 0.07 nM.

Consider `CC(C)n1cc(C[C@@H](NC(=O)C(C)(C)N)C(=O)NC2Cc3cccc(N4CCCC4=O)c3N(Cc3ccsc3)C2=O)c2ccccc21` (stereo partly drawn) [Example 34f, 2-amino-N-[(2R)-3-(1-isopropyl-1H-indol-3-yl)-1-oxo-1-[2-oxo-8-(2-oxopyrrolidin-1-yl)-1-(thiophen-3-ylmethyl)-1,2,3,4-tetrahydroquinolin-3-ylamino]propan-2-yl]-2-methylpropanamide hydrochloride], for which the EC50 came out at 1.13 nM.

For the compound `CC(C)C[C@@H](NC(=O)[C@@H](C)N)C(=O)NC1Cc2cccc(N3CCCC3=O)c2N(Cc2ccsc2)C1=O` (stereo partly drawn) [Example 34g, (2R)-2-((R)-2-aminopropanamido)-4-methyl-N-[2-oxo-8-(2-oxopyrrolidin-1-yl)-1-(thiophen-3-ylmethyl)-1,2,3,4-tetrahydroquinolin-3-yl]pentanamide hydrochloride], the EC50 was 2.75 nM.

Consider `CC[C@@](C)(N)C(=O)N[C@H](CC(C)C)C(=O)NC1Cc2cccc(N3CCCC3=O)c2N(Cc2ccsc2)C1=O` (stereo partly drawn) [Example 34h, (2R)-2-((R)-2-amino-2-methylbutanamido)-4-methyl-N-[2-oxo-8-(2-oxopyrrolidin-1-yl)-1-(thiophen-3-ylmethyl)-1,2,3,4-tetrahydroquinolin-3-yl]pentanamide hydrochloride], for which the 50% effective concentration (EC50) was determined as 0.74 nM.

Consider `CC[C@@](C)(N)C(=O)N[C@H](Cc1cn(C)c2ccccc12)C(=O)NC1Cc2cccc(N3CCCC3=O)c2N(Cc2ccsc2)C1=O` (stereo partly drawn) [Example 34i, (2R)-2-amino-2-methyl-N-[(2R)-3-(1-methyl-1H-indol-3-yl)-1-oxo-1-[2-oxo-8-(2-oxopyrrolidin-1-yl)-1-(thiophen-3-ylmethyl)-1,2,3,4-tetrahydroquinolin-3-ylamino]propan-2-yl]butanamide hydrochloride], for which the 50% effective concentration (EC50) was found to be 0.2 nM.

For `CC(C)C[C@@H](NC(=O)C(C)(C)N)C(=O)NC1Cc2cccc(N3CCCC3=O)c2N(Cc2ccsc2)C1=O` (stereo partly drawn) [Example 34k, (2R)-2-(2-amino-2-methylpropanamido)-4-methyl-N-[2-oxo-8-(2-oxopyrrolidin-1-yl)-1-(thiophen-3-ylmethyl)-1,2,3,4-tetrahydroquinolin-3-yl]pentanamide(R)-(−)-mandelate], the EC50 was determined as 0.47 nM.

`CC(C)C[C@@H](NC(=O)C(C)(C)N)C(=O)NC1Cc2cccc(N3CCCC3=O)c2N(Cc2ccsc2)C1=O` (stereo partly drawn) [Example 34l, (2R)-2-(2-amino-2-methylpropanamido)-4-methyl-N-[2-oxo-8-(2-oxopyrrolidin-1-yl)-1-(thiophen-3-ylmethyl)-1,2,3,4-tetrahydroquinolin-3-yl]pentanamide(S)-(+)-mandelate]: the EC50 turned out to be 0.37 nM.

On to `CC(C)C[C@@H](NC(=O)C(C)(C)N)C(=O)NC1Cc2cccc(N3CCCC3=O)c2N(Cc2cccs2)C1=O` (stereo partly drawn) [Example 34m, (2R)-2-(2-amino-2-methylpropanamido)-4-methyl-N-[2-oxo-8-(2-oxopyrrolidin-1-yl)-1-(thiophen-2-ylmethyl)-1,2,3,4-tetrahydroquinolin-3-yl]pentanamide hydrochloride], for which the concentration giving a half-maximal response (EC50) was 1.5 nM.

With `CC(C)C[C@@H](NC(=O)C(C)(C)N)C(=O)NC1Cc2cccc(N3CCCC3=O)c2N(Cc2ccccc2)C1=O` (stereo partly drawn) [Example 35, (2R)-2-(2-Amino-2-methylpropanamido)-N-[1-benzyl-2-oxo-8-(2-oxopyrrolidin-1-yl)-1,2,3,4-tetrahydroquinolin-3-yl]-4-methylpentanamide hydrochloride], the 50% effective concentration (EC50) turned out to be 0.9 nM.

For `CC(C)C[C@@H](NC(=O)C(C)(C)N)C(=O)NC1Cc2cccc(N3CCCCC3=O)c2N(Cc2ccccc2)C1=O` (stereo partly drawn) [Example 36, (2R)-2-(2-Amino-2-methylpropanamido)-N-[1-benzyl-2-oxo-8-(2-oxopiperidin-1-yl)-1,2,3,4-tetrahydroquinolin-3-yl]-4-methylpentanamide hydrochloride], the EC50 was 1.1 nM.

`CC(C)C[C@@H](NC(=O)C(C)(C)N)C(=O)NC1Cc2cccc(N3C(=O)CCC3=O)c2N(Cc2ccccc2)C1=O` (stereo partly drawn) [Example 37, (2R)-2-(2-Amino-2-methylpropanamido)-N-[1-benzyl-8-(2,5-dioxopyrrolidin-1-yl)-2-oxo-1,2,3,4-tetrahydroquinolin-3-yl]-4-methylpentanamide hydrochloride]: the concentration for a half-maximal effect (EC50) was 1 nM.

For the compound `CC(C)(N)C(=O)N[C@H](Cc1c[nH]c2ccccc12)C(=O)NC1Cc2cccc(N3CCCC3=O)c2N(Cc2ccccc2)C1=O` (stereo partly drawn) [Example 38, 2-Amino-N-[(2R)-1-[1-benzyl-2-oxo-8-(2-oxopyrrolidin-1-yl)-1,2,3,4-tetrahydroquinolin-3-ylamino]-3-(1H-indol-3-yl)-1-oxopropan-2-yl]-2-methylpropanamide hydrochloride], the EC50 worked out at 0.1 nM.

Regarding `CCN(CC)c1cccc2c1N(Cc1ccccn1)C(=O)C(NC(=O)[C@@H](CC(C)C)NC(=O)[C@H](N)Cc1ccc(O)cc1)C2` (stereo partly drawn) [Example 39, (2R)-2-((R)-2-Amino-3-(4-hydroxyphenyl)propanamido)-N-(8-(diethylamino)-2-oxo-1-(pyridin-2-ylmethyl)-1,2,3,4-tetrahydroquinolin-3-yl)-4-methylpentanamide hydrochloride], the half-maximal effective concentration (EC50) came to 12.9 nM.

For `CC(=O)Nc1cccc2c1N(Cc1ccccn1)C(=O)C(NC(=O)[C@@H](CC(C)C)NC(=O)C(C)(C)N)C2` (stereo partly drawn) [Example 40, (2R)—N-(8-Acetamido-2-oxo-1-(pyridin-2-ylmethyl)-1,2,3,4-tetrahydroquinolin-3-yl)-2-(2-amino-2-methylpropanamido)-4-methylpentanamide], the EC50 was found to be 80 nM.
